Experimental data: patent USRE47493E1, “Substituted bicyclic dihydropyrimidinones and their use as inhibitors of neutrophil elastase activity” (Boehringer Ingelheim International GmbH, priority 2014, dated 2019)

What was measured:
[1] = biological target: Human neutrophil elastase (Homo sapiens (Human), UniProt P08246); assay: Human Neutrophil Elastase Assay; assay type: biochemical; conditions: human neutrophil elastase, substrate MeOSuc-Ala-Ala-Pro-Val-AMC, pH 7.5; read-out: IC50
Outline: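 Readout: AMC fluorescence (ex 380, em 460 nm) after 60 min room-temperature reaction with 250 nM MeOSuc-AAPV-AMC, following 15 min compound–enzyme preincubation. Buffer: Tris/NaCl pH 7.5, 0.01% BSA.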

[2] = biological target: neutrophil elastase in human plasma (Homo sapiens (Human), UniProt P08246); assay: Assay for the Determination of Neutrophil Elastase Inhibitory Activity in Human Plasma; assay type: biochemical; conditions: neutrophil elastase enriched human plasma (zymosan-stimulated blood)
Method: Assay for the Determination of Neutrophil Elastase Inhibitory Activity in Human Plasma
Citrated blood from human healthy donors is mixed with zymosan suspension and incubated at room temperature. This leads to the stimulation of neutrophils and the release of neutrophil elastase into the plasma. The stimulated blood is centrifuged to generate the neutrophil elastase enriched plasma.
Preparation of Zymosan Working Solution:
• single 45 ml blood sample is taken into a 50 ml tube containing citrate (3.13%, 5 mL) and the tube is gently inverted 4 times. • Immediately after blood sampling, zymosan working solution (5 mL) is added. • After the addition of zymosan working solution, the tubes are capped, mixed gently and incubated at 22° C. for 15 min on a shaker at 20 rpm. • Make 10 ml aliquots after the incubation time. • Centrifuge the 15 ml tubes at 800 g for […] at 4° C. in a Jouan centrifuge. • Harvest the plasma and make 1-5 ml aliquots. • Store the plasma at −80° C.
Various concentrations of the neutrophil elastase inhibitor are incubated with plasma. Subsequently, the enzyme activity is measured using the fluorogenic substrate MeOSuc-Ala-Ala-Pro-Val-AMC (Bachem Cat. No. 1-1270, substrate concentration: 250 μM, pH 7.5, 25 mM TRIS buffer, 250 mM NaCl) in analogous fashion as described for the human neutrophil assay. A dose response curve is generated to calculate the EC50 of the inhibitor. The analysis of the data is performed by the calculation of the percentage of fluorescence in the presence of the test compound compared to the fluorescence of the vehicle control after subtracting the background fluorescence: An inhibitor of the neutrophil elastase enzyme will give values between 100% control (no inhibition) and 0% control (complete inhibition). The human plasma shift of selected compounds can be calculated using the following equation: Human plasma shift=(EC50 in human plasma assay)/(IC50 in human neutrophil elastase assay) The EC50 values of selected compounds in the human plasma assay described above are listed in Table 14.

Caco-2 cell monolayers = assay: Assay for Determination of Drug Transport Across Human CACO-2 Cells; assay type: in vitro ADME
From the text: Assay for Determination of Drug Transport Across Human CACO-2 Cells
The assay provides information on the potential of a compound to pass the cell membrane, on the extent of oral absorption as well as on whether the compound is actively transported by uptake and/or efflux transporters. For the measurement of permeability across polarized, confluent human cancer colon carcinoma cells 2 (Caco-2) cell monolayers grown on permeable filter supports are used as the in vitro absorption model. Apparent permeability coefficients (PE) of the compounds across the Caco-2 monolayers are measured (pH 7.2, 37° C.) in apical-to-basal (AB) (absorptive) and basal-to-apical (BA) (secretory) transport direction. AB permeability (PEAB) represents drug absorption from the intestine into the blood and BA permeability (PEBA) drug secretion from the blood back into the intestine via both passive permeability as well as active transport mechanisms mediated by efflux and uptake transporters that are expressed on the Caco-2 cells. The compounds are assigned to permeability/absorption classes by comparison of the AB permeabilities with the AB permeabilities of reference compounds with known in vitro permeability and oral absorption in the human. Identical or similar permeabilities in both transport directions indicate passive permeation, vectorial permeability points to additional active transport mechanisms. […] Active transport is concentration-dependently saturable.
Caco-2 cells (1−2*10^5 cells/cm^2 area) are seeded on filter inserts (Costar transwell polycarbonate or PET filters, […] pore size) and cultured (DMEM) for 10 to 25 days. Compounds are dissolved in appropriate solvent (like DMSO, 1-20 mM stock solutions). Stock solutions are diluted with HTP-4 buffer (128.13 mM NaCl, 5.36 mM KCl, 1 mM MgSO4, 1.8 mM CaCl2, 4.17 mM NaHCO3, 1.19 mM Na2HPO4×7H2O, 0.41 mM NaH2PO4×H2O, 15 mM HEPES, 20 mM glucose, pH 7.2) to prepare the transport solutions (typically […] compound, final DMSO <=0.5%). The transport solution (TL) is applied to the apical or basolateral donor side for measuring A-B or B-A permeability (3 filter replicates), respectively. The receiver side contains HTP-4 buffer supplemented with 2% BSA. Samples are collected at the start and end of experiment from the donor and at various time intervals for up to 2 hours also from the receiver side for concentration measurement by LC-MS/MS or scintillation counting. Sampled receiver volumes are is replaced with fresh receiver solution.
The apparent permeability coefficients (PEAB and PEBA) and efflux ratios (PEBA/PEAB) of selected compounds in the Caco-2 drug transport assay described above are listed in Table 17.

[3] = Assay for Determination of Aqueous Solubility; assay type: physicochemical; conditions: McIlvaine buffer pH 6.8, 2.5% DMSO, 24 h
Method: Assay for Determination of Aqueous Solubility
The aqueous solubility of a compound is determined by comparing the amount dissolved in aqueous buffer (containing 2.5% DMSO) to the amount dissolved in an acetonitrile/water (1/1) solution. Starting from a 10 mM DMSO stock solution, aliquots are diluted with acetonitrile/water (1/1) and Mcllvaine buffer pH 6.8, respectively. After 24 h of shaking, the solutions or suspensions are filtered and analyzed by LC-UV. The amount dissolved in buffer is compared to the amount dissolved in the acetonitrile/water (1/1) solution. Solubility is measured from 0.001 to 0.125 mg/ml at a DMSO concentration of 2.5%. If more than 90% of the compound is dissolved in buffer, the value is marked with “>”.

Chain of neutrophil elastase in human plasma (P08246 30-267): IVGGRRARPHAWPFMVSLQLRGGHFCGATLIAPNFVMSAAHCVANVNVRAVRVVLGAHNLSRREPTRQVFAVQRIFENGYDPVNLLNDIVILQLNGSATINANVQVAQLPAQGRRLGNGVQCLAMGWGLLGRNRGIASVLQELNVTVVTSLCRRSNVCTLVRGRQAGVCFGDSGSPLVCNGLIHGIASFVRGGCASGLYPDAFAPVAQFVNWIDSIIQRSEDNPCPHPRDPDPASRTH
Chain of Human neutrophil elastase (P08246 30-267): as above

IC50 [1]: < 1 nM | EC50 [2]: 1 nM | Efflux ratio (Caco-2 cell monolayers; Caco-2, PEBA/PEAB): 5.4 | PEAB (Caco-2 cell monolayers; Caco-2, apical-to-basal, pH 7.2, 37° C.): 15 ×10⁻⁶ cm/s | PEBA (Caco-2 cell monolayers; Caco-2, basal-to-apical, pH 7.2, 37° C.): 81 ×10⁻⁶ cm/s | Aqueous solubility [3]: 73 µg/mL
Compound: CCNC(=O)N1C(=O)N(c2cccc(C(F)(F)F)c2)C2=C(C(=O)CCC2)C1c1ccc(C#N)cc1S(C)(=O)=O (stereo not drawn) [Example 47.1]
